Experimental data published in patent publication US20020110523A1, “Methods for screening or monitoring the risk of cardiovascular disease relating to sex steroid compound or composition intake and methods for screening sex steroid compound” (priority 1996, published 2002).
Marks after values point to notes of the source that are not given here.

How the values were obtained:
[1] = review of human studies; cited from earlier work
[2] = tested on: SHBG, cortisol binding protein (CBP), ceruloplasmin and HDL-cholesterol; details: cited from earlier work; for estrogenic effect: in man; for androgenic activity: on the basis of a change in SHBG and HDL cholesterol levels
C-reactive protein (CRP) = experiment: CRP in postmenopausal women with type 2 diabetes on estrogen replacement therapy, randomized placebo-controlled trial (Example III); type: in vivo, human
[3] = among third-generation OCs; cited from earlier work
ceruloplasmin = details: FIG. 1 of Ruokonen and Kaar; cited from earlier work

C#C[C@]1(O)C=C[C@H]2[C@@H]3CCC4=CC(=O)CC[C@@H]4[C@H]3CC[C@@]21CC [gestodene]
androgenicity and antiestrogenic potential [1]: minimal amounts of androgenicity and antiestrogenic potential

C#C[C@]1(O)CC[C@H]2[C@@H]3CCC4=CCCC[C@@H]4[C@H]3CC[C@@]21C [lynestrenol]
estrogenic effect [2]: weakly estrogenic
androgenic activity [2]: androgenic activity

C[C@]12CC[C@@H]3c4ccc(O)cc4CC[C@H]3[C@@H]1CC[C@@H]2O [17 beta estradiol]
effect on CRP (C-reactive protein (CRP); 2 mg/d orally for six weeks): induced an increase in CRP
CRP-values, Median (C-reactive protein (CRP); 6 weeks, 2 mg/d orally, p = 0.0027 compared to pretreatment): 6.70#
CRP-values, Median (C-reactive protein (CRP); Pretreatment (baseline of the treatment group), postmenopausal women with type 2 diabetes): 4.13

C#C[C@]1(OC(C)=O)CC[C@H]2[C@@H]3CCC4=CC(=NO)CC[C@@H]4[C@H]3CC[C@@]21CC (mixture of isomers) [norgestimate]
androgenic profile in vitro [3]: least androgenic profile
androgenicity and antiestrogenic potential [1]: minimal amounts of androgenicity and antiestrogenic potential

C#C[C@]1(O)CC[C@H]2[C@@H]3CCC4=CCCC[C@@H]4[C@H]3C(=C)C[C@@]21CC [desogestrel]
effect on ceruloplasmin concentration (ceruloplasmin): does not induce this effect or does so to an insufficient degree
androgenicity and antiestrogenic potential [1]: minimal amounts of androgenicity and antiestrogenic potential
androgenicity compared among the three compounds ([2]; desogestrel, levonorgestrel and lynestrenol compared): least androgenic
estrogenic effect [2]: no estrogenic effect
androgenic activity [2]: androgenic activity
